Consider 1 substance from patent US20110070314A1 (priority 2009, published 2011).

The subject of one data set is T98G cells. It counts as cell-based, human.
The next data set deals with U138 cells. The class given is cell-based, human.
A further data set concerns U373 cells. The class given is cell-based, human.
The conditions of data set [1]: mouse, in vivo.
For data set [2], the system named is U-87MG orthotopic glioblastoma. The note with it: mouse, in vivo.
The subject of the next data set is U-87MG cells. The class given is cell-based, human.
For data set [3], the system named is U-87MG orthotopic glioblastoma. As to conditions: mouse, in vivo. The source holds these as a separate data set.
Another data set relates to brain tumors. The note with it: human, in vivo.
For data set [4] the following is noted: mouse, in vivo. This is another data set of the same source.

For sodium meta arsenite, in the data set on T98G cells, the “Anticancer effect (cell viability) vs control” value (shortened to “Anticancer effect … vs control”) is listed as “significant anticancer effects” and the “Dose dependence of anticancer effect” value was “dose-dependent anticancer effects”. Besides, in the data set with U138 cells, the “Anticancer effect … vs control” value is “significant anticancer effects” and the “Dose dependence of anticancer effect” value is listed as “dose-dependent anticancer effects”. In the data set with U373 cells, the “Anticancer effect … vs control” value is reported as “significant anticancer effects” and the “Dose dependence of anticancer effect” value is on record as “dose-dependent anticancer effects”. For the same substance, the “Crossing of the blood brain barrier” value in data set [1] was “can readily cross the blood brain barrier”. Also, the “Serum ALT and AST difference between the groups” value in [2] is recorded as “no significant difference”. In addition, in data set [2] (po, 10 mg/kg), the Anticancer effect result is given as “no anticancer effect”. In the data set on U-87MG cells, the “Anticancer effect … vs control” value is “significant anticancer effects” and the “Dose dependence of anticancer effect” value is “dose-dependent anticancer effects”. In [3], the “Body weight difference between groups” value was “no significant difference”. In [3] (po, 1.25 mg/kg), the “Inhibition of tumor growth” value came out at 28% and the Tumor mass is recorded as 40.2±12.3 mm^3. Also, the “MRI imaging of tumor mass” value in [3] (po, 5 mg/kg) is “decrease of tumor mass”. In addition, in the data set with brain tumors, the “MRI finding on brain tumor” value was “brain tumor was completely gone”; the Side effects entry is recorded as “Pt # 1 did not find any particular”; the “Time until pain lessened” value is “side effects, and within 5 days them”. In the data set on brain tumors (iv), the “Effect on lung cancer” value is given as “conditions appear to be stable” and the “Effect on tumor in the brain” value is “the tumor in the brain disappeared”. For the same substance, in data set [4], the “Adverse effects following oral and IV administration” value is reported as “No adverse effects were observed”; the “Clinical signs during testing” value is reported as “No clinical signs were observed”.
